Test results as given in patent US12485073B2, “Oral care compositions and methods of use” (Colgate-Palmolive Company, priority 2019, dated 2025).

Columns and labels:
[1] = 1H NMR analysis of MeSA hydrolysis in aqueous alkaline solution; type: physicochemical; conditions: for effect of added amino acid or derivative on MeSA hydrolysis rate: pH 9.0, aqueous solution (FIG. 4, 7, 8); for ester hydrolysis: with or without Gly at pH 9.0, within 48 hours (FIG. 4)
Description: Direct detection and quantification of MeSA in aqueous solution is challenging due to its low water solubility. While ^1H NMR provides structural and quantitative information of the specific substrate in the aqueous mixture, the greatest limitation of NMR is its poor sensitivity. […] Typically, a high concentration of substrate is needed for NMR quantitative analysis. However, to quantify a substrate by NMR at concentrations at or below about 0.1 wt. % in water is not possible without effective solvent suppression. To overcome this hurdle, composite n/2 pulses were applied prior to pre-saturation pulses to effectively suppress the water peak of the sample.
Studies were conducted to test how pH affects MeSA hydrolysis.
Next, the phenolic hydroxyl group was examined to test whether it affects hydrolysis of MeSA at basic pH. The hydrolysis of two analogue compounds, namely, methyl benzoate and methyl paraben were studied as comparators.
The t-butyloxycarbonyl (BOC) and methyl ester groups are routinely used in peptide synthesis to protect amine and carboxyl group of amino acid from reaction.

[2] = Methyl salicylate concentration versus pH in presence of arginine, UV/Vis (FIG. 9); type: physicochemical
Description: As shown, degradation of methyl salicylate can be substantially mitigated even in the presence of an amino acid under accelerated aging conditions. A curve for the relationship between pH and the above compositions is illustrated in FIG. 9.

Row | SMILES | ester hydrolysis [1] | effect of added amino acid or derivative on MeSA hydrolysis rate [1] | also measured
1 | COC(=O)CNC(=O)OC(C)(C)C [Boc-Gly methyl ester, reference compound] |  | significantly reduces to the same level as that of MeSA without Gly | 
2 | CC(C)(C)OC(=O)NCC(=O)O [Boc-Gly-OH, reference compound] |  | much faster than that of MeSA alone | 
3 | COC(=O)CN [Gly methyl ester, reference compound] |  | slightly faster than that of MeSA only | 
4 | NCCCC[C@H](N)C(=O)O [lysine] |  | accelerate the degradation of MeSA | 
5 | COC(=O)c1ccccc1 [methyl benzoate, reference compound] | no ester hydrolysis |  | 

Further lines, with some results ahead:

Row | ester hydrolysis [1] | SMILES | effect of added amino acid or derivative on MeSA hydrolysis rate [1] | also measured
6 | significant hydrolysis | COC(=O)c1ccccc1O [MeSA, Methyl salicylate] |  | reduction of peak intensity of the methyoxy group of MeSA ([1]; after 12 hr hydrolysis, 0.05 wt % MeSA + 0.025 wt % glycine, pH 9.0, 25° C.): about 30%; degradation of MeSA concentration (hydrolysis rate) as solution is more basic ([1]; water without amino acid, pH range 8 to 11.5 (FIG. 3)): becomes faster; MeSA hydrolysis ([1]; with Gly at pH 7.0): drastically reduced; MeSA degradation ([2]; pH 7.5): dramatically increases; preservation of MeSA ([2]; pH at 6.5 or 7.0): good preservation
7 | no ester hydrolysis | COC(=O)c1ccc(O)cc1 [methyl paraben, reference compound] |  | 
